In BindingDB's records for doi:10.1038/42506 (The University of Tokyo, 1997):

Target: T1, Leukotriene B4 receptor 2 (Homo sapiens, UniProt Q9NPC1)
T1 sequence (Q9NPC1 whole entry): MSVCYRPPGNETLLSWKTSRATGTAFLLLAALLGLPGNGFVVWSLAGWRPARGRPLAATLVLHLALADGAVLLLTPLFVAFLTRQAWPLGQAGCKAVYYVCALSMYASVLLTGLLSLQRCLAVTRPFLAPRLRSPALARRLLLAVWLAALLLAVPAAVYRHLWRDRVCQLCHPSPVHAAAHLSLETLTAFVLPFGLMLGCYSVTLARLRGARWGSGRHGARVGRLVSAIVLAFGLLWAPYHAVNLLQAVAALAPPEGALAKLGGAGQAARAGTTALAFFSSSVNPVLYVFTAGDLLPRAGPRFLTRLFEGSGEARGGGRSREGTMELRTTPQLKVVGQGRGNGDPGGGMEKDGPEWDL

| SMILES | Ki [nM] |
| --- | --- |
| CCCCC/C=C\C[C@H](O)/C=C/c1cccc(C[C@H](O)CCCCO)n1 [(5R)-6-[6-[(1E,3S,5Z)-3-hydroxyundeca-1,5-dienyl]pyridin-2-yl]hexane-1,5-diol] | 120 |
| CCCCCCC=CC(=O)C=CC=CC=CC(O)CCCC(=O)O (stereo not given) [CAS_5280876] | 7.6 |
| COc1ccc(/C=C/CCCCOc2cccc(OCCCCC(=O)O)c2CCC(=O)O)cc1 [ONO 4057] | 1200 |

Second part, the compound after the results:

| Ki [nM] | SMILES |
| --- | --- |
| 7.6 | O=C(O)CCCC(O)C=CC=CC=CC(O)CC=CCCCCCO (stereo not given) [NSC_1589] |
| 190 | O=C(O)CCCCCC=CCC(O)C=CC=CC=CC(O)CCCC(=O)O (stereo not given) [NSC_128572] |
